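Step 1: Grow cells in 96-well plates. Step 2: Expose to compound for 48 hours at 5 concentrations. Step 3: Interpolate endpoints linearly; if unreached, use highest concentration. GI50 = concentration required for 50% inhibition of growth.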 Activity calls are given as the source filed them. Cut-off read from the data, not from the text of the source: active = GI50 up to about 1.1 µM and inactive = higher.

Among the test systems are ACHN; BT-549; EKVX; HCT-116; HCT-15; IGROV-1; K562; M14; NCI-H226; NCI-H460; NCI/ADR-RES; OVCAR-3; OVCAR-8; RPMI-8226; SK-MEL-28; SK-MEL-2; SK-OV-3; SNB-19; UACC-257; UACC-62.
Test in all cases: DTP human tumour cell line panel, 48 h

The term GI50 denotes the concentration giving 50% growth inhibition. On to `C[N+](C)(C)C1=NNC2=Nc3ccccc3SC2=C1`, for which the GI50 with ACHN is 16 µM (inactive); in the test with BT-549 it was 28.6 µM (inactive); in the test with EKVX it was 4.92 µM (inactive); with HCT-116 it was 13.9 µM (inactive); in the test on HCT-15, 17.5 µM; in the test with IGROV-1, 17 µM (inactive). The GI50 with K562 was 17.9 µM (inactive); in the test with M14 it was 15.7 µM (inactive); with NCI-H226, 11.8 µM (inactive); in the test on NCI-H460, 19 µM (inactive); in the test with NCI/ADR-RES, 16.1 µM (inactive); in the test on OVCAR-3 it was 19.3 µM (inactive). Moreover, the GI50 is 18.4 µM (inactive) with OVCAR-8; 12.9 µM (inactive) with RPMI-8226; 19.4 µM (inactive) with SK-MEL-28; 14.1 µM (inactive) with SK-MEL-2; 23.6 µM (inactive) with SK-OV-3; 26.5 µM (inactive) in the test with SNB-19. Further, the GI50 in the test with UACC-257 was 23 µM (inactive); in the test on UACC-62, 17 µM (inactive).

As to `N#Cc1c(-c2ccccc2)cc(Nc2ccc(F)cc2)n2c1nc1ccccc12`, the GI50 with ACHN was 2.7 µM (inactive); in the test on BT-549, 3.24 µM (inactive); with EKVX, 2.09 µM (inactive); in the test with HCT-116, 1.83 µM (inactive); in the test with HCT-15, 3.26 µM; in the test on IGROV-1, 4.12 µM (inactive). Besides, the GI50 in the test with K562 was 5.61 µM (inactive); with M14, 3.35 µM (inactive); in the test on NCI-H226, 2.81 µM (inactive); in the test with NCI-H460, 2.36 µM (inactive); in the test with NCI/ADR-RES, 2.26 µM (inactive); in the test on OVCAR-3, 3.13 µM (inactive). For the same molecule, the GI50 is 3.12 µM (inactive) in the test on OVCAR-8; 3.56 µM (inactive) with RPMI-8226; 8.32 µM (inactive) in the test on SK-MEL-28; 1.43 µM (inactive) in the test with SK-MEL-2; 2.43 µM (inactive) in the test on SK-OV-3; 3.14 µM (inactive) in the test with SNB-19. The GI50 is 2.54 µM (inactive) in the test with UACC-257 and 1.84 µM (inactive) in the test on UACC-62.

As to `CC(=O)OCCOc1cc2c([nH]c3ccccc32)c(C)c2cccc1-2`, the GI50 with ACHN was 1.75 µM (inactive); in the test on BT-549, 2.75 µM (inactive); with EKVX, 1.86 µM (inactive); with HCT-116, 3.3 µM (inactive); with HCT-15, 2.94 µM; in the test on IGROV-1, 1.77 µM (inactive). The GI50 in the test with K562 was 1.36 µM (inactive); in the test with M14, 2.48 µM (inactive); in the test with NCI-H226 it was 10.3 µM (inactive); in the test on NCI-H460, 2.59 µM (inactive); in the test with NCI/ADR-RES, 3.53 µM (inactive); in the test with OVCAR-3, 2.01 µM (inactive). For the same molecule, the GI50 with OVCAR-8 is 2.59 µM (inactive); in the test with RPMI-8226 it was 2.43 µM (inactive); with SK-MEL-28 it was 2.58 µM (inactive); with SK-MEL-2, 2.21 µM (inactive); with SK-OV-3, 4.3 µM (inactive); in the test on SNB-19, 3.3 µM (inactive). Moreover, the GI50 in the test on UACC-257 is 1.91 µM (inactive); in the test with UACC-62 it was 2.39 µM (inactive).

Regarding `CN/C(=N\N=C1/C(=O)Nc2ccccc21)SCC(=O)c1ccc(Br)cc1`, the GI50 in the test on ACHN is 15.5 µM (inactive); in the test on BT-549, 68.1 µM (inactive); in the test on EKVX it was 22.3 µM (inactive); in the test with HCT-116 it was 4.53 µM (inactive); in the test on HCT-15, 17.2 µM; with IGROV-1, 31.1 µM (inactive). The GI50 is 20.5 µM (inactive) with K562; 11.7 µM (inactive) in the test with M14; 25.4 µM (inactive) in the test with NCI-H226; 10.2 µM (inactive) with NCI-H460; 6.9 µM (inactive) in the test with NCI/ADR-RES; 7.08 µM (inactive) with OVCAR-3. For the same molecule, the GI50 in the test on OVCAR-8 is 8.53 µM (inactive); in the test on RPMI-8226, 5.58 µM (inactive); in the test on SK-MEL-28, 15 µM (inactive); with SK-MEL-2 it was 50 µM (inactive); in the test on SK-OV-3 it was 9.04 µM (inactive); in the test with SNB-19, 32.4 µM (inactive). Further, the GI50 is 7.66 µM (inactive) with UACC-257 and 50.1 µM (inactive) with UACC-62.

On to `CC(C)Cc1cc2c(cc1O)CCC1C2CC[C@@]2(C)C1CC[C@@H]2O` (stereo not given in full), for which the GI50 was 6.95 µM (inactive) in the test on ACHN; 2.96 µM (inactive) with BT-549; 8.69 µM (inactive) in the test with EKVX; 6.05 µM (inactive) with HCT-116; 7.21 µM with HCT-15; 15.1 µM (inactive) in the test on IGROV-1. Also, the GI50 in the test on K562 was 3.83 µM (inactive); in the test with M14, 7.87 µM (inactive); in the test on NCI-H226, 4.79 µM (inactive); with NCI-H460 it was 10.5 µM (inactive); in the test on NCI/ADR-RES, 6.14 µM (inactive); in the test on OVCAR-3, 5.57 µM (inactive). Moreover, the GI50 in the test with OVCAR-8 was 6.35 µM (inactive); with RPMI-8226, 3.74 µM (inactive); with SK-MEL-28, 10.6 µM (inactive); with SK-MEL-2, 6.71 µM (inactive); in the test with SK-OV-3, 8.17 µM (inactive); in the test with SNB-19 it was 7.46 µM (inactive). For the same molecule, the results for the GI50 in the test with UACC-257 and with UACC-62 were 14.3 µM (inactive) and 7.71 µM (inactive), respectively.

For `CC1=C2C(=O)c3ccccc3C(=O)[C@H]2[C@H]2CCO[C@H]2O1`, the GI50 with ACHN was 20.9 µM (inactive); in the test on BT-549, 13.3 µM (inactive); in the test with EKVX, 30.5 µM (inactive); in the test with HCT-116, 23.8 µM (inactive); with HCT-15, 25.6 µM; with IGROV-1 it was 14.2 µM (inactive). Also, the GI50 was 27.4 µM (inactive) in the test with K562; 20.6 µM (inactive) in the test on M14; 71 µM (inactive) in the test on NCI-H226; 21 µM (inactive) in the test on NCI-H460; 27 µM (inactive) in the test on NCI/ADR-RES; 19.1 µM (inactive) in the test on OVCAR-3. Also, the GI50 with OVCAR-8 was 20.4 µM (inactive); with RPMI-8226, 24.4 µM (inactive); with SK-MEL-28, 24.3 µM (inactive); with SK-MEL-2, 18.8 µM (inactive); in the test on SK-OV-3, 50.4 µM (inactive); with SNB-19, 37 µM (inactive). The GI50 with UACC-257 was 18.5 µM (inactive); in the test with UACC-62 it was 20.4 µM (inactive).

As to `C=C(C(=O)OC)[C@H]1CC/C(C)=C/CC[C@@](C)(O)C=CC[C@@]2(C)O[C@@H]2C1`, the GI50 with ACHN is 36.3 µM (inactive); with BT-549, 76.2 µM (inactive); in the test on EKVX, 20.8 µM (inactive); in the test with HCT-116, 18.8 µM (inactive); in the test with HCT-15 it was 24.2 µM; with IGROV-1 it was 46.6 µM (inactive). Besides, the GI50 was > 10 µM (inactive) in the test with K562; 62.8 µM (inactive) in the test on M14; > 100 µM (inactive) with NCI-H226; > 100 µM (inactive) in the test with NCI-H460; 14.3 µM (inactive) in the test with NCI/ADR-RES; 17.7 µM (inactive) with OVCAR-3. For the same molecule, the GI50 in the test with OVCAR-8 is 13.9 µM (inactive); in the test on RPMI-8226 it was 16.1 µM (inactive); in the test with SK-MEL-28 it was 10.9 µM (inactive); with SK-MEL-2, 97.1 µM (inactive); in the test with SK-OV-3, > 100 µM (inactive); in the test on SNB-19, > 100 µM (inactive). Moreover, the GI50 is 27.5 µM (inactive) with UACC-257 and 31.9 µM (inactive) in the test on UACC-62.

For the molecule `COc1cc(CNC(=O)CCCCCCCCCCSSCCCCCCCCCCC(=O)NCc2ccc(O)c(OC)c2)ccc1O`, the GI50 is > 10 µM (inactive) with ACHN; > 10 µM (inactive) with BT-549; > 10 µM (inactive) in the test on EKVX; > 10 µM (inactive) in the test on HCT-116; over 10 µM in the test on HCT-15; > 10 µM (inactive) with IGROV-1. In addition, the GI50 with K562, with M14, in the test on NCI-H226, in the test with NCI-H460, in the test with NCI/ADR-RES and in the test on OVCAR-3 was > 10 µM (inactive) each time. In addition, the GI50 in the test on OVCAR-8, in the test on RPMI-8226, in the test with SK-MEL-28, with SK-MEL-2, in the test with SK-OV-3 and with SNB-19 was > 10 µM (inactive) in each case. For the same molecule, the GI50 in the test on UACC-257 and in the test with UACC-62 was > 10 µM (inactive) throughout.

As to `CCOC(=O)C(Cc1ccc(O)cc1)Nc1nc(=O)c2c(=O)oc(Cl)cc2o1` (stereo not given), the GI50 is 12.2 µM (inactive) with ACHN; 2.47 µM (inactive) in the test on BT-549; 12.4 µM (inactive) with EKVX; 6.38 µM (inactive) with HCT-116; 4.33 µM with HCT-15; 5.09 µM (inactive) with IGROV-1. The GI50 is 3.06 µM (inactive) in the test with K562; 4.15 µM (inactive) with M14; 19.7 µM (inactive) with NCI-H226; 16.4 µM (inactive) with NCI-H460; 20.9 µM (inactive) in the test on NCI/ADR-RES; 6.78 µM (inactive) with OVCAR-3. Moreover, the GI50 in the test on OVCAR-8 is 3.39 µM (inactive); in the test on RPMI-8226, 2.67 µM (inactive); with SK-MEL-28 it was 4.13 µM (inactive); in the test with SK-MEL-2, 12.5 µM (inactive); in the test with SK-OV-3, 14.4 µM (inactive); in the test with SNB-19, 10.8 µM (inactive). Besides, the GI50 was 8 µM (inactive) in the test on UACC-257 and 11.4 µM (inactive) in the test on UACC-62.

As for `C[N+]12C=CC=C1C(N1CCCC1)c1scc(-c3ccc(Br)cc3)c12` (stereo not given), the GI50 with ACHN was > 88.9 µM (inactive); in the test with BT-549, 1.79 µM (inactive); with EKVX, 20.1 µM (inactive); in the test on HCT-116 it was 30.9 µM (inactive); with HCT-15, over 90.8 µM; with IGROV-1, 4.58 µM (inactive). Moreover, the GI50 in the test with K562 is 6.7 µM (inactive); with M14, 27.7 µM (inactive); in the test on NCI-H226, 3.15 µM (inactive); in the test with NCI-H460, 14.6 µM (inactive); with NCI/ADR-RES it was > 100 µM (inactive); in the test with OVCAR-3, 6.38 µM (inactive). Besides, the GI50 was 4.11 µM (inactive) in the test on OVCAR-8; 3.01 µM (inactive) with RPMI-8226; 19 µM (inactive) in the test on SK-MEL-28; 6.18 µM (inactive) in the test with SK-MEL-2; > 81.7 µM (inactive) with SK-OV-3; 4.22 µM (inactive) in the test on SNB-19. The GI50 is 7.36 µM (inactive) in the test on UACC-257 and 19.2 µM (inactive) in the test with UACC-62.
